In this experiment the target is Proto-oncogene tyrosine-protein kinase receptor Ret (Homo sapiens, UniProt P07949). In words: RET Kinase Inhibition Assay. The conditions noted are these: pH 7.4; 22 °C.

What is called IC50 is the concentration that inhibits the measured activity by half. Read a high IC50 as weaker potency.

Sequence of Proto-oncogene tyrosine-protein kinase receptor Ret (P07949 whole entry): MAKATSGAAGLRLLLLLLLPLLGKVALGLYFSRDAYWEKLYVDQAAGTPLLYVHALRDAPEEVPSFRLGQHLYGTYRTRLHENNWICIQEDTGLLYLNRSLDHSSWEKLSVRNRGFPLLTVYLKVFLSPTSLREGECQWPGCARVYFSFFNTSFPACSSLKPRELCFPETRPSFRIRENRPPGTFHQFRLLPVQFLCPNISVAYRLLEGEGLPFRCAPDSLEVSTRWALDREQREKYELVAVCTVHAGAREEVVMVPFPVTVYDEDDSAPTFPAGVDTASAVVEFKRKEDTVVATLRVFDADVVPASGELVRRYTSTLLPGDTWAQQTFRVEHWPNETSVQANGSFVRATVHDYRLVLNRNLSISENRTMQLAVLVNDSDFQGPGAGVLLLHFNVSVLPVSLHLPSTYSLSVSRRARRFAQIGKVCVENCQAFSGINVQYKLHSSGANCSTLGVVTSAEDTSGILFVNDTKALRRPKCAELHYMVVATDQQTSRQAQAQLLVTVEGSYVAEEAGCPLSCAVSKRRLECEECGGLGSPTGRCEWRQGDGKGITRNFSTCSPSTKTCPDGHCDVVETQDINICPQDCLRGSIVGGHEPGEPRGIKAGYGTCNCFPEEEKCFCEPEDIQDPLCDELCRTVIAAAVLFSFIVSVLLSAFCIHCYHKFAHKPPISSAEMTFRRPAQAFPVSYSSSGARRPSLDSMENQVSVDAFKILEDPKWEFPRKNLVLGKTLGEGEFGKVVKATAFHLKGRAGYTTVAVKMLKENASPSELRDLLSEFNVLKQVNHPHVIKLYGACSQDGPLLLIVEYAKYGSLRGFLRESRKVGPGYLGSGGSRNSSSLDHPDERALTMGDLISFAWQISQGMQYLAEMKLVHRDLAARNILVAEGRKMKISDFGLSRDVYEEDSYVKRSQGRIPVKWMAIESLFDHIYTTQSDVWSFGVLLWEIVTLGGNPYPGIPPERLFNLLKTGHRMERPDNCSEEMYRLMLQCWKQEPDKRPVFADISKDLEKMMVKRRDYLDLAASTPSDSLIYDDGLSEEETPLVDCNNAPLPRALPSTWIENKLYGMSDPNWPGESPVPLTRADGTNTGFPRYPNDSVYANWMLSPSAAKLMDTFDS

`Cc1ccc(O)cc1Nc1cc(C(F)(F)F)nc2ccc(-c3ccncc3)cc12` [4-methyl-3-{[6-(pyridin-4-yl)-2-(trifluoromethyl)quinolin-4-yl]amino}phenol] registered an IC50 above 1 µM.

These data come from BindingDB's records for doi:10.1016/j.bmcl.2007.07.104 (Glaxosmithkline, 2007).
